Assay [1] deals with Proteasome. Kind of assay: Inhibition of post glutamyl l-peptide (PGPH) proteolytic activity of purified human proteasome.
For assay [2], the system named is Proteasome. The assay is described as follows: Inhibition of chymotrypsin-like proteolytic activity of purified human proteasome. It counts as subcellular.
Assay [3] deals with Proteasome. The assay is described as follows: Inhibition of chymotrypsin-like proteolytic activity of purified human proteasome in cultured MDA-MB 435 Cells. The format is subcellular.
Assay [4] deals with Proteasome. The assay is described as follows: Inhibition of trypsin-like proteolytic activity of purified human proteasome. It counts as subcellular.
The subject of a further assay is MDA-MB-435. The assay is described as follows: Inhibition of MDA-MB 435 cell proliferation. It counts as functional, cell-based. To be noted: Homo sapiens.

As to `COc1ccc(CNC(=O)[C@@H](NC(=O)[C@H](Cc2cc(OC)c(OC)c(OC)c2)NC(=O)Cc2cccc(Oc3ccccc3)c2)C(C)C)c(O)c1`, the IC50 in the assay with Proteasome [1] was greater than 20000 nM; in the assay on Proteasome [2] it was 10 nM; with Proteasome [3], 20 nM; in the assay on Proteasome [4], greater than 20000 nM; in the assay with MDA-MB-435, 60 nM.
The molecule `COc1ccc(CNC(=O)[C@@H](NC(=O)[C@H](Cc2ccc(OC)c(OC)c2)NC(=O)Cc2ccccc2)C(C)C)c(O)c1` displayed an IC50 with Proteasome [2] of 1000 nM.
For `COc1ccc(CNC(=O)[C@@H](NC(=O)[C@H](Cc2ccc(OC)c(OC)c2)NC(=O)Cc2cccc(Oc3ccccc3)c2)C(C)C)c(O)c1`, the half-maximal inhibitory concentration (IC50) with Proteasome [1] was greater than 20000 nM; in the assay with Proteasome [2] it was 60 nM; in the assay on Proteasome [4], greater than 20000 nM; in the assay with MDA-MB-435, 900 nM.
Regarding `COc1ccc(CN[C@@H](C(=O)N[C@H](C(=O)NCc2ccc(OC)cc2O)C(C)C)[C@H](O)[C@H](Cc2ccccc2)NC(=O)[C@@H](NC(=O)OCc2ccccc2)C(C)(C)C)cc1`, the concentration for half-maximal inhibition (IC50) was greater than 20000 nM in the assay with Proteasome [1], 900 nM in the assay on Proteasome [2] and greater than 20000 nM in the assay with Proteasome [4].
With `COc1ccc(CNC(=O)[C@@H](NC(=O)[C@H](NCc2cc(OC)c(OC)c(OC)c2)[C@H](O)[C@H](Cc2ccccc2)NC(=O)[C@@H](NC(=O)Cc2cccc3ccccc23)C(C)(C)C)C(C)C)c(O)c1`, the IC50 is greater than 20000 nM with Proteasome [1], 7 nM in the assay with Proteasome [2], greater than 20000 nM in the assay on Proteasome [4] and 1500 nM in the assay on MDA-MB-435.

A word on the IC50: it is the concentration at which inhibition is half-maximal. Lower therefore signals inhibition by little substance.

Source of the values: ChEMBL document CHEMBL1138756, “Entry into a new class of potent proteasome inhibitors having high antiproliferative activity by structure-based design” (J Med Chem, 2004).
